According to ChEMBL document CHEMBL1275517, “Development of caspofungin resistance following prolonged therapy for invasive candidiasis secondary to Candida glabrata infection” (2008):
Values after ≈ are worked out from the molar mass of the structure shown. Numbered stars: 1 amine (or outer) side, 2 acyl side, 3 side chain; on linkers, the order of the positions; unused ones are H or OH. Bridge positions count the residues as written; N and C are the ends. Square brackets hold non-standard residues; d marks the D form. Peptide text beside a SMILES is read from it. * marks the point of attachment. hTyr(3S-OH,4S-OH,3'-OSO3H) = N[C@H](C(=O)O)[C@H](O)[C@@H](O)c1ccc(O)c(OS(=O)(=O)O)c1; pTerphenylCO(4''-OnC5H11) = CCCCCOc1ccc(-c2ccc(-c3ccc(C(=O)*)cc3)cc2)cc1; Orn(4R-OH,5R-OH) = O=C([C@H](C[C@@H](O)[C@@H](O)N[*:3])N[*:1])[*:2]; hTyr(3S-OH,4S-OH) = N[C@H](C(=O)O)[C@H](O)[C@@H](O)c1ccc(O)cc1; Pro(3S-OH,4S-Me) = C[C@H]1CN[C@H](C(=O)O)[C@H]1O; X1 = CCCCCOc1ccc(-c2cc(-c3ccc(C(=O)*)cc3)no2)cc1; Gln(3R-OH) = NC(=O)C[C@@H](O)[C@H](N)C(=O)O; Hyp = O=C(O)[C@@H]1C[C@@H](O)CN1

Columns and labels:
Assay type in all cases: functional
Nakaseomyces glabratus [1] = assay: Antimicrobial activity against Candida glabrata isolate 7755 expressing FKS2 F659V mutant gene after 24 hrs by broth dilution method in presence of 50% of human serum; details: isolate 7755, 24 h
Nakaseomyces glabratus [2] = assay: Antimicrobial activity against Candida glabrata isolate 7754 after 24 hrs by broth dilution method in presence of 50% of human serum; details: isolate 7754, 24 h
Nakaseomyces glabratus [3] = assay: Antimicrobial activity against Candida glabrata isolate 7755 expressing FKS2 F659V mutant gene after 24 hrs by broth dilution method; details: isolate 7755, 24 h
Nakaseomyces glabratus [4] = assay: Antimicrobial activity against Candida glabrata isolate 7754 after 24 hrs by broth dilution method; details: isolate 7754, 24 h
Nakaseomyces glabratus [5] = assay: Antimicrobial activity against Candida glabrata isolate 7754 after 48 hrs by broth dilution method; details: isolate 7754, 48 h
Nakaseomyces glabratus [6] = assay: Antimicrobial activity against Candida glabrata isolate 7755 FKS2 F659V mutant gene after 48 hrs by broth dilution method in presence of 50% of human serum; details: isolate 7755, 48 h
Nakaseomyces glabratus [7] = assay: Antimicrobial activity against Candida glabrata isolate 7755 FKS2 F659V mutant gene after 48 hrs by broth dilution method; details: isolate 7755, 48 h
Nakaseomyces glabratus [8] = assay: Antimicrobial activity against Candida glabrata isolate 7754 after 48 hrs by broth dilution method in presence of 50% of human serum; details: isolate 7754, 48 h

SMILES	MIC (Nakaseomyces glabratus [1]) [µg/mL]	MIC (Nakaseomyces glabratus [2]) [µg/mL]	MIC (Nakaseomyces glabratus [3]) [µg/mL]	MIC (Nakaseomyces glabratus [4]) [µg/mL]	MIC (Nakaseomyces glabratus [5]) [µg/mL]	MIC (Nakaseomyces glabratus [6]) [µg/mL]	MIC (Nakaseomyces glabratus [7]) [µg/mL]	MIC (Nakaseomyces glabratus [8]) [µg/mL]
CCCCCOc1ccc(-c2ccc(-c3ccc(C(=O)N[C@H]4C[C@@H](O)[C@@H](O)NC(=O)[C@@H]5[C@@H](O)[C@@H](C)CN5C(=O)[C@H]([C@@H](C)O)NC(=O)[C@H]([C@H](O)[C@@H](O)c5ccc(O)cc5)NC(=O)[C@@H]5C[C@@H](O)CN5C(=O)[C@H]([C@@H](C)O)NC4=O)cc3)cc2)cc1 [ANIDULAFUNGIN] ({pTerphenylCO(4''-OnC5H11)}-[Orn(4R-OH,5R-OH)]T[Hyp][hTyr(3S-OH,4S-OH)]T[Pro(3S-OH,4S-Me)]; lactam 1-C)	4	1	0.5 (≈ 0.438 µM)	0.125 (≈ 0.11 µM)	0.125 (≈ 0.11 µM)	4	1 (≈ 0.877 µM)	2
CC[C@H](C)C[C@H](C)CCCCCCCCC(=O)N[C@H]1C[C@@H](O)[C@@H](NCCN)NC(=O)[C@@H]2[C@@H](O)CCN2C(=O)[C@H]([C@H](O)CCN)NC(=O)[C@H]([C@H](O)[C@@H](O)c2ccc(O)cc2)NC(=O)[C@@H]2C[C@@H](O)CN2C(=O)[C@H]([C@@H](C)O)NC1=O [CASPOFUNGIN]	2	0.5	2 (≈ 1.83 µM)	0.25 (≈ 0.229 µM)	0.25 (≈ 0.229 µM)	8	8 (≈ 7.32 µM)	0.5
CCCCCOc1ccc(-c2cc(-c3ccc(C(=O)N[C@H]4C[C@@H](O)[C@@H](O)NC(=O)[C@@H]5[C@@H](O)[C@@H](C)CN5C(=O)[C@H]([C@H](O)CC(N)=O)NC(=O)[C@H]([C@H](O)[C@@H](O)c5ccc(O)c(OS(=O)(=O)O)c5)NC(=O)[C@@H]5C[C@@H](O)CN5C(=O)[C@H]([C@@H](C)O)NC4=O)cc3)no2)cc1 [MICAFUNGIN] (X1-[Orn(4R-OH,5R-OH)]T[Hyp][hTyr(3S-OH,4S-OH,3'-OSO3H)][Gln(3R-OH)][Pro(3S-OH,4S-Me)]; lactam 1-C)	4	1	0.25 (≈ 0.197 µM)	0.125 (≈ 0.0984 µM)	0.125 (≈ 0.0984 µM)	4	0.5 (≈ 0.394 µM)	4
